Literature values as cited in patent US20240115591A1, “THERAPEUTIC METHODS AND COMPOSITIONS FOR TREATING BILIARY TRACT CANCER USING DEVIMISTAT” (Cornerstone Pharmaceuticals, Inc., priority 2020, published 2024).

How the values were obtained:
[1] = tested on: locally advanced or metastatic BTC; settings: for OS (overall survival): 410 patients with locally advanced or metastatic BTC, phase III ABC-02
[2] = ABC-02, patients with advanced BTC

Compound	OS (overall survival) [1] [months]	objective response rate ([1]; ABC-02, combination arm) [%]	hazard ratio (HR) for OS ([1]; gemcitabine cisplatin arm versus gemcitabine alone arm, 95% CI 0.52 to 0.80, p<0.001)	historical ORR (CR+PR) ([1]; historical estimate from Valle et al. 2010, used as null hypothesis for the planned phase 2) [%]	grade 3 and 4 adverse event: abnormal liver function [2] [%]	grade 3 and 4 adverse event: anemia [2] [%]	grade 3 and 4 adverse event: deep vein thrombosis [2] [%]	grade 3 and 4 adverse event: fatigue [2] [%]	grade 3 and 4 adverse event: impaired renal function [2] [%]	grade 3 and 4 adverse event: nausea [2] [%]	grade 3 and 4 adverse event: neutropenia [2] [%]	grade 3 and 4 adverse event: thrombocytopenia [2] [%]	grade 3 and 4 adverse event: thromboembolic event [2] [%]	grade 3 and 4 adverse event: vomiting [2] [%]	grade 3 and 4 adverse event: infection (in vivo) [%]
Nc1ccn([C@@H]2O[C@H](CO)[C@@H](O)C2(F)F)c(=O)n1 [gemcitabine, 2′-deoxy-2′,2′-difluorocytidine (β-isomer)]	8.1	–	–	–	–	–	–	–	–	–	–	–	–	–	–
gemcitabine cisplatin	11.7	26.1	0.64	25	16.7	7.6	2	18.7	1.5	4	25.3	15.7	3.5	5.1	18.2
